Experimental data taken from patent US12699090B2 (priority 2019, dated 2026).
Entries after “also recorded” stand apart in the source; their conditions may differ.

tested on: PBMCs isolated from naturally M. bovis-infected cattle; format: cell-based, cattle (Bos taurus taurus)

Sequence	recognition of individual peptide (IFN-γ ELISPOT response, Z-scores)
AANKQKQELDEISTNIRQAGVQYSRADEEQQQALSSQMGF [compound 8]	far stronger response
AITHGPYCSQFNDTLNVYLT (artificial protein fragment) [compound 39, short Rv3615c peptide]	poor recognition could be compensated
AITHGPYCSQFNDTLNVYLTAHNALGSSLHTAGVDLAKSL (artificial protein fragment) [compound 10, long Rv3615c fragment]	poorly recognized
GQWRGAAGTAAQAAVVRFQEAANKQKQELDEISTNIRQAG [compound 7]	far stronger response
KQSLTKLAAAWGGSGS (artificial protein fragment) [peptide 17, short ESAT-6 peptide]	strong epitope
MAEMKTDAATLAQEAGNFERISGDLKTQIDQVESTAGSLQ [compound 5]	poorly recognized
MTENLTVQPERLGVLASHHDNAAVDASSGVEAAAGLGESV (artificial protein fragment) [compound 9, long Rv3615c fragment]	poorly recognized
NVTSIHSLLDEGKQSLTKLAAAWGGSGSEAYQGVQQKWDA [peptide 2]	poorly and infrequently recognized
QEAGNFERISGDLKTQ [peptide 25]	strongly recognized; also recorded: recognized promiscuously
SHHDNAAVDASSGVEAAAGL (artificial protein fragment) [compound 36, short Rv3615c peptide]	poor recognition could be compensated
